The text below walks through data of the Kinase Knowledgebase extract (Sharma et al. 2016).

Sequence of ROCK2 (human) (O75116 whole entry, looked up): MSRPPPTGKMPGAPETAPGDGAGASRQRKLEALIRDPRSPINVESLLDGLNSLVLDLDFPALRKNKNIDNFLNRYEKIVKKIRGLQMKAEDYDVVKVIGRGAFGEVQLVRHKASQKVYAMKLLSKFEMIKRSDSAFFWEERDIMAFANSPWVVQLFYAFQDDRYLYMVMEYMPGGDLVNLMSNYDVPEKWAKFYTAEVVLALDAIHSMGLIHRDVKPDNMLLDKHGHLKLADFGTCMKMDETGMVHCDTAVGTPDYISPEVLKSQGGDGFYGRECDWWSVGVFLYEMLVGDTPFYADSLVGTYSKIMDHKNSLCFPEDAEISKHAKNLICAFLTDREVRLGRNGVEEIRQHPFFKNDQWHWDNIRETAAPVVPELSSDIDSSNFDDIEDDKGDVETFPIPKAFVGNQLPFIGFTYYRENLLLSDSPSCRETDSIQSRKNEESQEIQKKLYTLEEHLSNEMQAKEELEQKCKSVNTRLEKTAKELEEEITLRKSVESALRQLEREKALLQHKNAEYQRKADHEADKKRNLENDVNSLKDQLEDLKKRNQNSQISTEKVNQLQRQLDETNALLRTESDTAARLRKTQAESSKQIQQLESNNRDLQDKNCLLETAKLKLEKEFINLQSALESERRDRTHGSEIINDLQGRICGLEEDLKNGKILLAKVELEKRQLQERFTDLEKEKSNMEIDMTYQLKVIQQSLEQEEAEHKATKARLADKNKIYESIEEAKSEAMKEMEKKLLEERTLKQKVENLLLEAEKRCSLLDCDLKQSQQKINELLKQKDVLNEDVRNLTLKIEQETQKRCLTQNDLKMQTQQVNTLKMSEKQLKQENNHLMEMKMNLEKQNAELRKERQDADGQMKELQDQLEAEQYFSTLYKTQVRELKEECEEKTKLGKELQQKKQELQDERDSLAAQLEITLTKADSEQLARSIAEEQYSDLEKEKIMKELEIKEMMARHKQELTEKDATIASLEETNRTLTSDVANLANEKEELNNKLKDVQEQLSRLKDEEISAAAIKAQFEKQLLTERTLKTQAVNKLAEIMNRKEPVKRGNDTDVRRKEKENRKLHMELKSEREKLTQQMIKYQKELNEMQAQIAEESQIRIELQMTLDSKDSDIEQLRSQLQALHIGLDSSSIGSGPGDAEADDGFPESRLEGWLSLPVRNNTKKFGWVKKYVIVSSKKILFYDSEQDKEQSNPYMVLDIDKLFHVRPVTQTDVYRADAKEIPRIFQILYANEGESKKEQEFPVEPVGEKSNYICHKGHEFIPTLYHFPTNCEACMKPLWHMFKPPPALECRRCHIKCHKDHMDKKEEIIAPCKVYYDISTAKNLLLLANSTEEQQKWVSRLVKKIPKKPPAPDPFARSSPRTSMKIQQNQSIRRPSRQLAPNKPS

This experiment has as its target ROCK2 (human) (UniProt O75116). As to the kind of experiment: Inhibition of ROCK2 Kinase Activity.
One may read the IC50 as the concentration that inhibits the measured activity by half. Read a high IC50 as weaker potency in that assay. As for `COc1cccc(CN(CCN2CCCC2)C(=O)c2nc3ccc(-c4cn[nH]c4)cc3s2)c1`, the IC50 worked out at 43 nM.

With `O=C(Nc1nc2ccc(-c3cn[nH]c3)cc2s1)C1COc2ccc(F)cc2C1` (centres undefined), the IC50 amounted to 22 nM.

In turn, `COc1ccc2c(c1)CC(c1nc3ccc(-c4c[nH]nc4C)cc3o1)CO2` (centres undefined) came in with an IC50 of 16 nM.

The compound `COc1ccc(CNc2nc3ccc(-c4ccncc4)cc3s2)cc1` displayed an IC50 of 5000 nM.

The compound `O=C(Nc1nc2ccc(-c3cn[nH]c3)cc2s1)[C@H]1CNC[C@@H]1c1ccccc1` yielded an IC50 of 50 nM.

`COc1cccc(CN(CCCN(C)C)C(=O)c2nc3ccc(-c4cn[nH]c4)cc3s2)c1` had an IC50 of 4.3 nM.

For the compound `CN(C)CCCNC(=O)c1ccc2c(c1)CC(c1nc3ccc(-c4cn[nH]c4)cc3s1)CO2` (centres undefined), the IC50 is 0.87 nM.

For the compound `NCC(=O)N1C[C@H](C(=O)Nc2nc3ccc(-c4cn[nH]c4)cc3s2)[C@@H](c2ccccc2)C1`, the IC50 was determined as 37 nM.

Compound `Fc1ccc2c(c1)CC(c1nc3ccc(-c4cn[nH]c4)cc3o1)CO2` (centres undefined) came in with an IC50 of 30 nM.

With `Nc1cc(-c2ccc3nc(C4COc5ccccc5C4)oc3c2)ccn1` (centres undefined), the IC50 stood at 36 nM.

As to `Cc1n[nH]cc1-c1ccc2nc(C3COc4ccc(F)cc4C3)oc2c1` (centres undefined), the IC50 was 9 nM.

As for `c1ccc(CCc2nc3ccc(-c4cn[nH]c4)cc3s2)cc1`, the IC50 came out at 40 nM.

`Nc1nccc(-c2ccc3nc(C4COc5ccccc5O4)oc3c2)n1` (centres undefined) returned an IC50 of 21 nM.

Regarding `COc1ccc2c(c1)CC(c1nc3cc(-c4ccncc4)cnc3s1)CO2` (centres undefined), the IC50 is 579 nM.

As to `COc1ccc2c(c1)CC(c1nc3cc(-c4ccnc5[nH]ccc45)ccc3o1)CO2` (centres undefined), the IC50 worked out at 518 nM.

Turning to `COc1cccc(C(=O)Nc2nc3ccc(-c4ccncc4)cc3s2)c1`, the IC50 came to 1930 nM.

Compound `Nc1nccc(-c2ccc3nc(C4COc5ccc(F)cc5C4)sc3c2)n1` (centres undefined) gave an IC50 of 23 nM.

Consider `Nc1cc(-c2ccc3nc(C4COc5ccc(F)cc5C4)oc3c2)ccn1` (centres undefined), for which the IC50 was found to be 18 nM.

Compound `COc1cccc(CN(CCN(C)C)C(=O)Nc2nc3ccc(-c4cn[nH]c4)cc3s2)c1` displayed an IC50 of 8 nM.

For `COc1ccc2c(c1)CC(c1nc3cc(-c4ccnc(N)n4)ccc3o1)CO2` (centres undefined), the half-inhibitory concentration (IC50) is 933 nM.

`COc1cccc(OCc2nc3ccc(-c4cn[nH]c4)cc3s2)c1` gave an IC50 of 42 nM.

As to `c1ccc(OCc2nc3ccc(-c4cn[nH]c4)cc3s2)cc1`, the IC50 is 44 nM. This IC50 and that of the compound before are within 1.5-fold of each other.

`c1ccc2c(c1)OCC(c1nc3ccc(-c4cn[nH]c4)cc3s1)O2` (centres undefined) came in with an IC50 of 17 nM.

With `COc1ccc2c(c1)CC(c1nc3ccc(-c4cn[nH]c4)cc3o1)CO2` (centres undefined), the IC50 is 1.5 nM.

As for `CN(C)CCN(Cc1ccccc1)C(=O)c1nc2ccc(-c3cn[nH]c3)cc2s1`, the IC50 stood at 2 nM. This IC50 and that of the compound before are within 1.5-fold of each other.

Consider `CN(C)CCNC(=O)c1cccc(CN(C(=O)c2nc3ccc(-c4cn[nH]c4)cc3s2)C2CC2)c1`, for which the IC50 stood at 35 nM. Compared with the last compound, the IC50 is about 18-fold higher.

Compound `CN(C)CCN(Cc1cccc(F)c1)C(=O)c1nc2ccc(-c3cn[nH]c3)cc2s1` displayed an IC50 of 1 nM.

`COc1ccc2c(c1)CC(c1nc3cc(-c4cn[nH]c4)ccc3o1)CO2` (centres undefined) displayed an IC50 of 219 nM.

The compound `COc1ccc2c(c1)CC(c1nc3ccc(-c4ccnc(N)c4)cc3o1)CO2` (centres undefined) displayed an IC50 of 8 nM.

As for `NCCC(=O)N1CC(C(=O)Nc2nc3ccc(-c4cn[nH]c4)cc3s2)CC1c1ccccc1` (centres undefined), the IC50 was 29 nM.

Regarding `COc1ccc2c(c1)CC(c1nc3ccc(-c4ccncc4)cc3o1)CO2` (centres undefined), the IC50 was 6 nM.

`COc1cccc(CNC(=O)c2nc3ccc(-c4cn[nH]c4)cc3s2)c1`: the IC50 is 21 nM.

For `COc1cccc(CN(CCO)C(=O)c2nc3ccc(-c4cn[nH]c4)cc3s2)c1`, the IC50 came out at 7 nM.

`O=C(Nc1nc2ccc(-c3cn[nH]c3)cc2s1)C1COc2ccccc2C1` (centres undefined) yielded an IC50 of 14 nM.
